According to paper PMC5973626, “A secreted Heat shock protein 90 of Trichomonas vaginalis” (PLoS Neglected Tropical Diseases, 2018):
pKd: −log10 of the molar value.

Key:
Format in all cases: binding
[1] = target: T1, TV910 (Grp94 ortholog, TVAG_378910) (Trichomonas vaginalis, UniProt A2DB82); test: intrinsic tryptophan fluorescence quenching; also ATPase inhibition (IC50 […])
T1 construct: 6x-His tag fusion expressed in E. coli

[2] = target: T2, TV560 (cytosolic Hsp90, TVAG_153560) (Trichomonas vaginalis, UniProt A2EPR1); test: as above
T2 construct: full-length, 6x-His tag fusion expressed in E. coli (721 amino acids)
T2 sequence (A2EPR1 entry or part of it): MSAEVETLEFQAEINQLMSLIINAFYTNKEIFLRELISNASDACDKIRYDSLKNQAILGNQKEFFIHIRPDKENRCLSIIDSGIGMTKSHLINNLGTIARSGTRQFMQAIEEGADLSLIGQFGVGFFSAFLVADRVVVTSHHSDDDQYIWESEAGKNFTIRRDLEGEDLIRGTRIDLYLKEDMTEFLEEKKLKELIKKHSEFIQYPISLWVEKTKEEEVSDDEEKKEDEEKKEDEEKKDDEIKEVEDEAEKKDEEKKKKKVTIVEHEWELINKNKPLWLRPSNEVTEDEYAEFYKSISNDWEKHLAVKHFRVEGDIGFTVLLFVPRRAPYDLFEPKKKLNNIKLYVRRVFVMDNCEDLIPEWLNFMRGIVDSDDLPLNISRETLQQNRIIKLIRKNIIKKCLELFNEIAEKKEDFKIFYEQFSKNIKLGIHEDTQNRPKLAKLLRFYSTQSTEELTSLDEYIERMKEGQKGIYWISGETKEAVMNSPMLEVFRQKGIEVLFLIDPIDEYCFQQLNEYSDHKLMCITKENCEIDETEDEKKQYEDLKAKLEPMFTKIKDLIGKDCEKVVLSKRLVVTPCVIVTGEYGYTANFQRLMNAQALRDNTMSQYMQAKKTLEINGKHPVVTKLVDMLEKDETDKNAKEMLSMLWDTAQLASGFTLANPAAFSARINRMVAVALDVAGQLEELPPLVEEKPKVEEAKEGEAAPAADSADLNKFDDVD

[3] = target: T1, TV910 (Grp94 ortholog, TVAG_378910); test: intrinsic tryptophan fluorescence quenching; also ATPase kinetics (KM […])
[4] = target: T2, TV560 (cytosolic Hsp90, TVAG_153560); test: as above

T1 sequence (A2DB82 entry or part of it): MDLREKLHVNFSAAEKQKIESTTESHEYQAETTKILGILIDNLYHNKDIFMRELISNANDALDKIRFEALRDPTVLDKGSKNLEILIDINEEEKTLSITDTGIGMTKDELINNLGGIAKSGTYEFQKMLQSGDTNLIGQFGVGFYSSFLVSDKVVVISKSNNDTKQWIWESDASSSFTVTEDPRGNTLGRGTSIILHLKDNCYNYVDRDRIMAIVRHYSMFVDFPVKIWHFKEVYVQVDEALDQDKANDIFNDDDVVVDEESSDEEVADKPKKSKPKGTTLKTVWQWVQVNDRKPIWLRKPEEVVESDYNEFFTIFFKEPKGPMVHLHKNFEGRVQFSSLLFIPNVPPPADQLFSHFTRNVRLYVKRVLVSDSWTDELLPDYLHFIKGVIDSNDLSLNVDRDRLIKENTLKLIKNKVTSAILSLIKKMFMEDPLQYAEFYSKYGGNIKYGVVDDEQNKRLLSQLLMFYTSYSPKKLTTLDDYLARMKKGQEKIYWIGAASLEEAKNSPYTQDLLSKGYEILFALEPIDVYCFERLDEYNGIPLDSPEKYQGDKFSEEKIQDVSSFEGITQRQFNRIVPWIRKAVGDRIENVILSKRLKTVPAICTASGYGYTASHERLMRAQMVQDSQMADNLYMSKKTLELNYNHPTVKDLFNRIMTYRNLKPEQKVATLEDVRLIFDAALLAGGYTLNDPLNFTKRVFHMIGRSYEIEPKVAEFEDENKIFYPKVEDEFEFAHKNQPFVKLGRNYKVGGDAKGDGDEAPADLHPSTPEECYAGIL

C=CCNC1=C2C[C@@H](C)C[C@H](OC)[C@H](O)[C@@H](C)/C=C(\C)[C@H](OC(N)=O)[C@@H](OC)/C=C\C=C(/C)C(=O)NC(=CC1=O)C2=O [17-AAG] was tested, and the pKd [1] was 4.80 and the pKd [2] was 4.94.

Compound Nc1ncnc2c1ncn2[C@@H]1O[C@H](COP(=O)(O)OP(=O)(O)OP(=O)(O)O)[C@@H](O)[C@H]1O [ATP] has a pKd [3] of 3.14 and a pKd [4] of 3.27.
